Key:
[1] = tested on: TWEAK-Fn14 signaling pathway; test: TWEAK induced Fn14-NF-κB Luc assay, optimized 384-well HTS format; format: cell-based, human; conditions: 1000 cells/well, 40 ng/mL TWEAK 8 hr, 1 hr pre-incubation
Description: Human embryonic kidney cells (HEK293) express low levels of the Fn14 receptor. We developed a cell-based assay for the Fn14-TWEAK pathway signaling events using HEK293 cells that stably co-expresses high levels of full length Fn14 receptor and a firefly luciferase reporter driven by NF-KB-response elements (Fn14-NF-KB-Luc).
We optimized HEK293 Fn14-NF-KB Luc cell line for HTS by testing TWEAK-stimulated Luc-reporting as a function of growth medium, TWEAK concentration, induction time, assay duration, cell density, and DMSO concentration. For example, we seeded HEK293 Fn14-NF-KB-Luc and control cells (HEK293 NFKB-Luc) into a 96-well plate at a density of 10,000 cells/well, in DMEM or Opti-MEM® (Reduced serum media, protein concentration 15 μg/mL) and incubated at 37 C for 24 or 48 h. We then induced them with various concentrations of TWEAK in buffer or buffer alone (PBS+1 mg/mL BSA) for 5 hr and then measured firefly luciferase levels by chemiluminescence (Bright-Glo™ Promega). […] These initial conditions formed the basis for transfer of the assay into a 384-well format and further optimization with respect to cell seeding density, induction time, and TWEAK concentration.
We achieved the same conclusion from both 96-well and 384-well format that signal-to-background and fold-inductions are increased with increasing TWEAK concentration, peaking between 40-80 ng/mL and decreased at 100 ng/mL (FIGS. 20A and 20B). […] These conditions were further refined with respect to cell density (500-2500 cells per well), induction time (4-8 hr), and two TWEAK concentrations over a series of experiments in 384-well formats.
In the majority of seeding density conditions and two different TWEAK concentrations, the assay performance improved with increasing TWEAK induction time. At 8 hours of TWEAK stimulation, the fold induction (S/B) and Z′ factor was approximately 8-fold and 0.8, respectively, and the average % CV was 6.8%. […]

[2] = tested on: TNFα induction of NF-κB; test: TNFα induced counterscreen assay, HEK293 NF-κB Luc cells; format: cell-based, human
Description: TNFα induction of the HEK293 NF-κB cell line was used as a counterscreen. […] Furthermore, we tested the two control compounds, LY294002 and BAY11-7082, in a drug dose-response format. […] We anticipate that compounds that directly affect Fn14 oligomerization, TWEAK ligation, or signaling proteins specific to the TWEAK-Fn14 signaling pathway that drive NF-κB activation will show minimal activity in the TNFα counterscreen assay. In order to eliminate the false positive hits from the pilot screen, we further performed the counterscreen by testing 35 “positives” from the Prestwick collection against HEK293 NF-KB-Luc control cell lines induced by TNFα. From this experiment we eliminated 28 compounds that inhibited luciferase expression after TNFα induction of HEK293 NF-KB Luc cells. Thus, after counterscreen only 7 compounds appeared to be specific inhibitors to the TWEAK-Fn14 signaling pathway. […] Overall, through our pilot primary screen and counterscreen, our hit rate approached 0.6% for this targeted collection. We expect a random collection to yield a lower hit-rate, which will be further reduced through the chemoinformatic filtering for luciferase false positive artifacts. Furthermore, secondary assays will be critical as cytotoxic false positives appeared to be about 80% from our pilot screen. […]

[3] = molecular target: T1, TWEAK (Homo sapiens, UniProt O43508); test: Surface Plasmon Resonance assay, TWEAK sensor surface; format: binding; conditions: SPR, 0 to 50 μM
T1 sequence (O43508 94-249 limits assumed): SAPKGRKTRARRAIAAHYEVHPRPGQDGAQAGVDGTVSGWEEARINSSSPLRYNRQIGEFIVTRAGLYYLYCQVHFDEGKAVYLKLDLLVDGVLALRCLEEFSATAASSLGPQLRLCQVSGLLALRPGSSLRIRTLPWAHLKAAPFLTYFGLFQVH
Procedure: (§1) Surface Plasmon Resonance (SPR) Assay. The binding affinity of at least one of the compounds (e.g., L524-0366) to TWEAK and Fn14-Fx was determined using a BIAcore T100 optical biosensor (GE Healthcare) at 25 degrees Celsius at the Arizona Proteomics Consortium. Recombinant human TWEAK (20 μg/mL in 10 mM HEPES pH 7.4, 150 mM NaCl, 3 mM EDTA, 0.05% Tween 20) or recombinant human Fn14-Fc (20 μg/mL in 10 mM NaOAc pH 4.0) were covalently coupled to separate flow cells on a BIAcore CM5 sensor chip using standard amine coupling chemistry as per manufacturer's protocol. Final immobilization levels were 6000 Response Units (RU) for TWEAK and 13,000 RU for FN14-Fc. The first flow path of the chip was treated with the same coupling and blocking reagents without protein and was used as a reference for each binding cycle. Functionality of the TWEAK and the Fn14-Fc sensor surfaces were verified by injecting Fn14-Fc and TWEAK over them respectively. Serial dilutions of L524-0366 or cycloheximide (control) from 0 to 50 μM were made in running buffer (10 mM HEPES pH 7.4, 150 mM NaCl, 3 mM EDTA, 1% DMSO). […] Equilibrium dissociation constants for the small molecules were calculated by fitting the double reference subtracted data to Req=((CRmax)/(KD+C))+RI, where RI is the bulk refractive index contribution.

[4] = molecular target: T2, Fn14 (Homo sapiens, UniProt Q9NP84); test: Surface Plasmon Resonance assay, Fn14-Fc sensor surface; format: binding; conditions: SPR, 0 to 50 μM
T2 construct: the human Fc fragment-tagged Fn14 extracellular domain (R&D Systems) was captured
T2 sequence (Q9NP84 28-80 limits assumed): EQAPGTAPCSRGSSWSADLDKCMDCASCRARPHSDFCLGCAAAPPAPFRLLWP
Procedure: as §1

[5] = tested on: Fn14 signaling; test: NF-κB luciferase reporter assay with sTWEAK variants, HEK293 NF-κB luciferase cells overexpressing full length Fn14; format: cell-based, human; conditions: HEK293 NF-κB luciferase cells stably overexpressing full length Fn14, 5 hr
Procedure: (§2) NF-κB luciferase reporter Assay. The capacity of sTWEAK or sTWEAK variants to activate Fn14 signaling was evaluated using engineered reporter cell lines that express luciferase upon NF-κB activation. Two reporter cell lines were utilized for these experiments. HEK293 NF-κB luciferase (courtesy of Dr. Jeff Winkles) were generated by transfecting HEK293 cells with a reporter plasmid containing 5 copies of a consensus NF-κB binding site upstream of a minimal CMV promoter driving expression of firefly luciferase. The second cell line, designated HEK293 NF-κB luciferase Fn14 FL, was generated by stably transfecting the HEK293 NF-κB luciferase cell line with full length Fn14. To assay the binding of sTWEAK or sTWEAK variants to Fn14, reporter cells were seeded in tissue culture treated white 96-well plates at 1×10^4 cells/well in 80 μL Opti-MEM media (Invitrogen) and incubated for 48 hr at 37° C. After 48 hr incubation, 20 μL of 5× purified recombinant TWEAK (Peprotech Inc.; 150 ng/mL) in 1 mg/mL BSA in PBS was added to each well and incubated for 5 hr at 37° C. as positive control. Similarly, equivalent amounts of sTWEAK or sTWEAK variant prepared via IVTTas determined using ELISA assay described above was added in 20 μl. […] At the end of 5 hr incubation, the luminescent signal was determined using Bright-Glo assay kit (Promega, Madison, Wis.) according to the manufacturer's instructions.

[6] = tested on: Fn14 signaling; test: NF-κB luciferase reporter assay with sTWEAK variants, HEK293 NF-κB luciferase cells; format: cell-based, human; conditions: 5 hr
Procedure: as §2

Cc1ccc(S(=O)(=O)/C=C/C#N)cc1 [BAY11-7082]
effect on TWEAK induced Fn14-NF-κB Luc signal [1]: dose-dependent manner | drug inhibition of TNFα activation, Fn14 versus control cell lines ([2]; drug dose-response format, 40 ng/ml TNFα): no significant difference

C[C@@H]1C[C@H]2[C@@H]3CCC4=CC(=O)C=C[C@]4(C)[C@@]3(F)[C@@H](O)C[C@]2(C)[C@@]1(O)C(=O)CO [Dexamethasone, dexamethasone]
effect on TWEAK induced Fn14-NF-κB Luc signal [1]: no effect

CC(C(=O)O)c1ccc(N2Cc3ccccc3C2=O)cc1 (centres unmarked) [Indoprofen]
effect on TWEAK induced Fn14-NF-κB Luc signal [1]: drug sensitivity in a dose-dependent manner | effect in NF-KB Luc cells induced with TNFα ([2]; 10 μM, TNFα 40 ng/mL for 8 hours): no significant effect

C[C@@H]1C[C@@H]([C@H](O)CC2CC(=O)NC(=O)C2)C(=O)[C@@H](C)C1 [cycloheximide, reference compound]
binding to TWEAK [3]: did not show significant binding | binding to Fn14 [4]: did not show significant binding

B1: sTWEAK Y176A: soluble form of TWEAK (amino acids K97-H249) with Y176A substitution, made by IVTT (protein, UniProt O43508 97-249, looked up, variant Y176A)
chain: KGRKTRARRAIAAHYEVHPRPGQDGAQAGVDGTVSGWEEARINSSSPLRYNRQIGEFIVTRAGLYYLYCQVHFDEGKAVALKLDLLVDGVLALRCLEEFSATAASSLGPQLRLCQVSGLLALRPGSSLRIRTLPWAHLKAAPFLTYFGLFQVH
induction of luciferase expression less relative to cells stimulated with sTWEAK [5]: 98% | luciferase expression less than cells stimulated with sTWEAK [6]: 87%

B2: sTWEAK Y176F: soluble form of TWEAK (amino acids K97-H249) with Y176F substitution, made by IVTT (protein, UniProt O43508 97-249, looked up, variant Y176F)
chain: KGRKTRARRAIAAHYEVHPRPGQDGAQAGVDGTVSGWEEARINSSSPLRYNRQIGEFIVTRAGLYYLYCQVHFDEGKAVFLKLDLLVDGVLALRCLEEFSATAASSLGPQLRLCQVSGLLALRPGSSLRIRTLPWAHLKAAPFLTYFGLFQVH
induction of luciferase expression less relative to cells stimulated with sTWEAK [5]: 98% | luciferase expression less than cells stimulated with sTWEAK [6]: 100%
